The values that follow are results of earlier work, collected in patent US10753947B2, “Methods for screening voltage-gated proteins” (D.E. Shaw Research, LLC, priority 2012, dated 2020).

Each structure is given as a SMILES string. Like-named read-outs stand apart in the source and are kept apart here.

A word on the IC50: it is the concentration that gives 50% inhibition.

In one data set the target is Kv1.2 (Homo sapiens, UniProt P16389). Conditions: Table 4; read-out: IC50 Kv1.2; cited from earlier work.
Another data set addresses KCa3.1 (Homo sapiens, UniProt O15554). The note with it: Table 4; cited from earlier work.
A further data set addresses Kv1.1 (Homo sapiens, UniProt Q09470). The note with it: Table 4; read-out: IC50 Kv1.1; cited from earlier work.
In the next data set the target is Kv1.3 (Homo sapiens, UniProt P22001). The note with it: cited from earlier work.
The next data set deals with Kv1.5 (Homo sapiens, UniProt P22460). Conditions: Table 4; cited from earlier work.
The next data set has as its system Nav. The note with it: Table 4; read-out: IC50 Others: Nav; cited from earlier work.
In another data set the target is T1, Kv3.2 (Homo sapiens, UniProt Q96PR1).
T1 sequence (Q96PR1 1-638): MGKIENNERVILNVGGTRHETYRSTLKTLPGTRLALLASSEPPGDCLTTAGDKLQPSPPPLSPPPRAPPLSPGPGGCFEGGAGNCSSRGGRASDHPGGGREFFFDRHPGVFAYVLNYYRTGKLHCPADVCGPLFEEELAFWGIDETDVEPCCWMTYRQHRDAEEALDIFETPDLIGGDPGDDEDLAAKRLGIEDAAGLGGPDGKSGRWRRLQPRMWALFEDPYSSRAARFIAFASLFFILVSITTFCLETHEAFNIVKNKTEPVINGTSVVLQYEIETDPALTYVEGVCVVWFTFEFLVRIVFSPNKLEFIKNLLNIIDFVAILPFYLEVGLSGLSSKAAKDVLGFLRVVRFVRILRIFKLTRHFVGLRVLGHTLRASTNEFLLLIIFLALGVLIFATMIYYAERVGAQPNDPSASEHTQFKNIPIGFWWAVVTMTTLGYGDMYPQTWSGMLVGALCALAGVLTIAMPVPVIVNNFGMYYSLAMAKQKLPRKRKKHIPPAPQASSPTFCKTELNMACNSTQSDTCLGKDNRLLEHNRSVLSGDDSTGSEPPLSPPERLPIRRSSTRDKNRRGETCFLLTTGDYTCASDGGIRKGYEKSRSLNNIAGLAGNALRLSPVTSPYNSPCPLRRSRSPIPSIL
The note with it: Table 4; read-out: IC50 Others: Kv3.2; cited from earlier work.

For another data set, the target named is Kv1.4 (Homo sapiens, UniProt P22459). The note with it: Table 4; read-out: IC50 Others: Kv1.4; cited from earlier work.
[1] abbreviates: Table 2, modulating Kv1.3 ion conductance, read-out: IC50.

Chain of Kv1.3 (P22001 whole entry): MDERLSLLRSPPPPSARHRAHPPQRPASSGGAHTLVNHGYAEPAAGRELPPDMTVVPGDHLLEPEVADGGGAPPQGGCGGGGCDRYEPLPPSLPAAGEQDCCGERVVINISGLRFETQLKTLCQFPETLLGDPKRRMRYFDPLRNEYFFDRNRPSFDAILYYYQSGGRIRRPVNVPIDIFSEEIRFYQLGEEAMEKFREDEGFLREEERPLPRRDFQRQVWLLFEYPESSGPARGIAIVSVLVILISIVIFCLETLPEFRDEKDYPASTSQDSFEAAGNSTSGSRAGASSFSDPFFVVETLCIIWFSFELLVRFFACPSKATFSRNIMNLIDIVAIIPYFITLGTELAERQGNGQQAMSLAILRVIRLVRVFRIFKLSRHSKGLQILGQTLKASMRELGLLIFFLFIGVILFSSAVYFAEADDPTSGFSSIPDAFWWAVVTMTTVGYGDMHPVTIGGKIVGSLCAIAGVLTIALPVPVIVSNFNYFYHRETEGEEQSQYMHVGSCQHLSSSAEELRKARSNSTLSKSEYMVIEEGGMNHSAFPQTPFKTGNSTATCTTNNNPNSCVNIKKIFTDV
Chain of KCa3.1 (O15554 whole entry): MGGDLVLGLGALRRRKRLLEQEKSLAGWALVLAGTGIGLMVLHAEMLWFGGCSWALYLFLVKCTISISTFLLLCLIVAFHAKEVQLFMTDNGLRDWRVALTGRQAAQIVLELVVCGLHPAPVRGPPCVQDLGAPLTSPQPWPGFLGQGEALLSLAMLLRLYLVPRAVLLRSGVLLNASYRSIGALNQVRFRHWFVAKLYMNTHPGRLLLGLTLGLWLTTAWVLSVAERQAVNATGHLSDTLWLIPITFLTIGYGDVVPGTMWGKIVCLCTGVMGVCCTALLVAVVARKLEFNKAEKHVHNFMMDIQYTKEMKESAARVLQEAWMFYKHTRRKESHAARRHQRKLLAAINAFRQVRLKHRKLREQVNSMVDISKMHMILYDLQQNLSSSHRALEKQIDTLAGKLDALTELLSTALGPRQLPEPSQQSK
Chain of Kv1.2 (P16389 whole entry): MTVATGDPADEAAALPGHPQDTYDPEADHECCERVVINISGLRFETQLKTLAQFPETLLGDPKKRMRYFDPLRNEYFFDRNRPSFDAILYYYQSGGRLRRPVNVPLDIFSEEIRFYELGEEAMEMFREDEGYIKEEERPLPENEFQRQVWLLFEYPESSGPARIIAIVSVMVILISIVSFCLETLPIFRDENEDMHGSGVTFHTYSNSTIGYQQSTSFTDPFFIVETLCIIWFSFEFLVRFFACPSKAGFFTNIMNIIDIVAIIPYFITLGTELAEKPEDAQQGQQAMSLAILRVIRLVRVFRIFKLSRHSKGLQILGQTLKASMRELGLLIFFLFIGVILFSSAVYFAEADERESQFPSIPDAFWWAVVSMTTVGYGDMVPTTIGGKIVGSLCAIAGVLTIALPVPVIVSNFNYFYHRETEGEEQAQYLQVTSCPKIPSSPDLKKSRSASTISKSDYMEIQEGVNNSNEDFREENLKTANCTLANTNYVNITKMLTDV
Chain of Kv1.1 (Q09470 whole entry): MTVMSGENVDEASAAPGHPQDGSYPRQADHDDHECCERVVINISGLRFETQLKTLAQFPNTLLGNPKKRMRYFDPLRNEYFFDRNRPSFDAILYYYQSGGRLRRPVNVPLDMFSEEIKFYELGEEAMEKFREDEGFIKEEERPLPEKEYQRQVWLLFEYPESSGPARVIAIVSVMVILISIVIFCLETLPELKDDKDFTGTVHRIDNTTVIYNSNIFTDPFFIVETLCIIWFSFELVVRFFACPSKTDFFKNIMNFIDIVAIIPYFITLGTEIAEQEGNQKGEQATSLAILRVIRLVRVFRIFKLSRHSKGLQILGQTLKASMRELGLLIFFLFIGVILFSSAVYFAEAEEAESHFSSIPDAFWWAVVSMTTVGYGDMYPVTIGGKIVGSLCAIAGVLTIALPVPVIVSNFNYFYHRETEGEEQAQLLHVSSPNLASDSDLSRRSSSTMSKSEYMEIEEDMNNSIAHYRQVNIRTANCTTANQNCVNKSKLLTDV
Chain of Kv1.5 (P22460 whole entry): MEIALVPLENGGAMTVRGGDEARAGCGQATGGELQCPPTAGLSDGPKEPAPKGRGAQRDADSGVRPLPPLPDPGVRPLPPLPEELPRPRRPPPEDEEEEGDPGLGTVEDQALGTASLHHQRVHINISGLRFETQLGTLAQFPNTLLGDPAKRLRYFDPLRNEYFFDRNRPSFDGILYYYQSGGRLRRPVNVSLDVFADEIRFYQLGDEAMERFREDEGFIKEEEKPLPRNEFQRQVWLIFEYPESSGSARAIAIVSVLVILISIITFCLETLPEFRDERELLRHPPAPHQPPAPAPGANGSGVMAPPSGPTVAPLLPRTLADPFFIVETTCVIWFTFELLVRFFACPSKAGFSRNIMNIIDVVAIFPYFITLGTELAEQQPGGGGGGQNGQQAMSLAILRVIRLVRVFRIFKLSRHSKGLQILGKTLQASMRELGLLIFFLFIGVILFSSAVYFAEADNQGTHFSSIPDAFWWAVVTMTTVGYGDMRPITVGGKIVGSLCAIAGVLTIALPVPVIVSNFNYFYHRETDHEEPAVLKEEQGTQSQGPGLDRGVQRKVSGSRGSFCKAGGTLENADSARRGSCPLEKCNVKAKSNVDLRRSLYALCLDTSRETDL
Chain of Kv1.4 (P22459 whole entry): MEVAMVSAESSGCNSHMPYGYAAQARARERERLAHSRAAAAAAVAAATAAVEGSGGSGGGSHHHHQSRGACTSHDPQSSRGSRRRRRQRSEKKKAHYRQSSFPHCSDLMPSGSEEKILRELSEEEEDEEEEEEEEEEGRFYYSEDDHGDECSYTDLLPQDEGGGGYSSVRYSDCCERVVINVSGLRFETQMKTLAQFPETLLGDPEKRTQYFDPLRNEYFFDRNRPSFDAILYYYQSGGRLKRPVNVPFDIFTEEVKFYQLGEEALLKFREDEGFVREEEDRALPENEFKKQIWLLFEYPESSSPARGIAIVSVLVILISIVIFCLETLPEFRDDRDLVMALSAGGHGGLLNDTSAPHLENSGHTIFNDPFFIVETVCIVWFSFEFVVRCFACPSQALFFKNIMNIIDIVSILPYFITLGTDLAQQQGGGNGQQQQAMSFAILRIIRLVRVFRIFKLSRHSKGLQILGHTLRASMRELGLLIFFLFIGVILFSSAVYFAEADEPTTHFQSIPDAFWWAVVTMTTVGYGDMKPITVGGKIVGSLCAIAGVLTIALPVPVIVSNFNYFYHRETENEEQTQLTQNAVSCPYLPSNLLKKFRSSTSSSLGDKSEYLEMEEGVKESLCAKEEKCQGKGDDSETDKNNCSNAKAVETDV

Take `CCCCC/N=c1\ccn(Cc2ccccc2)c2ccccc12` [CP-339818]: the IC50 at Kv1.2 is 14 µM; at KCa3.1, more than 500 µM; on Kv1.1, 62 µM; at Kv1.3 (setting [1]), 150 nM; at Kv1.3 (Table 4, read-out: IC50 Kv1.3), 230 nM; on Kv1.5 it was 19 µM. Besides, the 50% inhibitory concentration (IC50) in the data set on Nav was 10 nM.
Regarding `COc1ccc(CCCN2CCC(COC(c3ccccc3)c3ccccc3)CC2)cc1` [UK-78282], the IC50 on Kv3.2 is 127 µM; at Kv1.2 it was 2.9 µM; at KCa3.1, more than 30 µM; at Kv1.1, 22 µM; at Kv1.3 (setting [1]) it was 200 nM; at Kv1.4 it was 300 nM. The IC50 at Kv1.5 was 0.07 µM.
